# Where two headings read alike, the source gives them in different places.
# Legend:
# [1] = molecular target: T1, GST-tagged human recombinant active B-Raf (Δ1-415) (Homo sapiens, UniProt P15056); experiment: B-Raf kinase activity, IMAP coupled assay (B-Raf/MEK1/ERK2, fluorescence polarization); type: biochemical; conditions: bounds also given as pIC50 (>6, >7, >8); 60 min pre-incubation with compound, ATP 50 μM; read-out: IC50, B-Raf IMAP assay
# T1 construct: GST; purchased Upstate/Millipore
# T1 sequence (P15056 416-766, stated change not applied): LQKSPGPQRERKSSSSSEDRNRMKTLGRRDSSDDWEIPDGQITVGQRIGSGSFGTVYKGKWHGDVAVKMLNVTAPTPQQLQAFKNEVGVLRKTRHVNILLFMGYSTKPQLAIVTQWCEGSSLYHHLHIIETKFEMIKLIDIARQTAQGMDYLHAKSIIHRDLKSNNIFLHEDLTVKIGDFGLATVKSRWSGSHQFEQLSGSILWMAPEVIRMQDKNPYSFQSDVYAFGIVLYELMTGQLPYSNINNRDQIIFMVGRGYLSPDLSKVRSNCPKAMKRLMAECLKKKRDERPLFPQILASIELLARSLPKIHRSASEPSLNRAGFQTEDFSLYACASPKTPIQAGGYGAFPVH
# From the text: (§1) In another assay the B-Raf kinase activity can be determined by using an IMAP assay (Immobilized Metal Assay for Phosphochemicals-based coupled assay). IMAP is a homogeneous fluorescence polarization (FP) assay based on affinity capture of phosphorylated peptide substrates. IMAP uses fluorescein-labeled peptide substrates that, upon phosphorylation by a protein kinase, bind to so called IMAP nanoparticles, which are derivatized with trivalent metal complexes. Such binding causes a change in the rate of the molecular motion of the peptide, and results in an increase in the FP value observed for the fluorescein label attached to the substrate peptide. In such an assay, B-Raf phosphorylates unactive MEK1. The phosphorylated MEK1 is capable of phosphorylating ERK2, which subsequently phosphorylates the fluorescein-labeled peptide substrate.
# Determination of B-Raf Kinase Activity using an IMAP Assay
# as §1, with “Inhibition of” for “In another assay the”, “was measured” for “can be determined by”, “Immobilized” for “IMAP assay (Immobilized”, “assay (IMAP).” for “assay).”, “this” for “such an”
# Enzymes, substrate and ATP were diluted at all steps in Kinase Reaction buffer (10 mM Tris-HCl, 10 mM MgCl2, 0.01% Tween-20, 0.05% NaN3 pH 7.2, 1 mM DTT). The final volume at the kinase reaction step of the assay in the 384-well plate was 20 μl. The concentrations within brackets are final concentrations in the assay. B-Raf (GST-tagged human recombinant active B-Raf (Δ1-415), Upstate/Millipore; 0.2 U/ml) was pre-incubated with compounds or DMSO (1% final concentration) for 60 minutes at room temperature in the dark. Thereafter, MEK 1 (GST-tagged human recombinant unactive MEK1 (full-length); 64 ng/ml), ERK2 (GST-tagged human recombinant unactive ERK2 (full-length); 600 ng/ml), peptide substrate (Erktide, Molecular Devices; 50 nM) and ATP (50 μM) were added to the wells and the mix was incubated for another 60 minutes at 30° C. in the dark. Then, IMAP progressive binding buffer (75% 1× buffer A, 25% 1× buffer B, 1:900 Progressive Binding Reagent; Molecular Devices) was added followed by an incubation step of 60 minutes at room temperature in the dark. Finally, the FP signal was read on an Envision Multilabel reader (Perkin Elmer).
# [2] = tested on: phosphorylation of ERK1/2 in A375 cells containing mutant B-Raf (V600E); experiment: Phospho-ERK FACE assay in A375 (B-Raf mutated) melanoma cell line; type: cell-based; conditions: Homo sapiens, A-375, A375 cells, 2 hours incubation, read-out: IC50, A375 melanoma phospho-ERK assay
# Procedure: The B-Raf activity can also be determined in a B-Raf mutated melanoma cell line, such as the A375 cell line. Inhibition of phosphorylation of ERK1/2 can be measured using a Fast Activated Cell-based ELISA (FACE) from Active Motif (Carlsbad, U.S.A., CA). E.g. A375 cells, which are cells containing a mutant form of B-Raf (V600E) and thus contain high levels of phosphorylated ERK, can be incubated with Raf inhibitors. Then cells can be incubated with anti-phospho-ERK antibody and subsequently with horse radish peroxidase (HRP)-labeled secondary antibody. Finally, chemiluminescence reagents can be added, which react with HRP, to give a luminescence signal.
# Determination of B-Raf Activity Using a A375 (B-Raf mutated) Melanoma Cell Line (Phospho-ERK FACE Assay)
# Inhibition of phosphorylation of ERK1/2 was measured using a Fast Activated Cell-based ELISA (FACE) from Active Motif (Carlsbad, U.S.A., CA). Briefly, A375 cells, which are cells containing a mutant form of B-Raf (V600E) and thus contain high levels of phosphorylated ERK, were incubated for 2 hours with Raf inhibitors. Then, cells were fixed with paraformaldehyde, washed and following quenching and blocking, incubated with anti-phospho-ERK antibody, and as a control, on a separate plate, with ERK antibody. After washing and removal of the primary antibodies, the fixed cells were incubated with horse radish peroxidase (HRP)-labeled secondary antibody. Finally, chemiluminescence reagents were added, which react with HRP, to give a luminescence signal.
# Detailed protocol: A375 cells were cultured in DMEM/F12 (Dulbecco's Modified Eagle Medium Nutrient Mixture F-12) (Invitrogen), supplemented with 10% fetal bovine serum (FBS) (Biowhittaker), 100 U/ml penicillin G and 100 μg/ml streptomycin (Gibco). For the phospho ERK assay, cells were seeded at a density of 15,000 cells/well in 100 μl culture medium in 96-well plates and incubated in a humidified atmosphere at 5% CO2 and 37° C. After 24 hours, cells were washed with DMEM/F12 supplemented with 0.1% FBS (assay medium 120 μl of assay medium was added and the plates were incubated overnight in a humidified atmosphere at 5% CO2 and 37° C. The next day, the assay medium was removed and compounds diluted in assay medium were added to the cells. Final DMSO concentration in the assay was 1%. After 2 hours incubation, cells were fixed by replacing the assay medium with 100 μl of 4% formaldehyde (Bio-Connect, Huissen, The Netherlands) in PBS. After 20 minutes of incubation at room temperature, cells were washed three times with 200 μl wash buffer (0.1% (vol/vol) Triton X-100 in PBS from the FACE kit) followed by an incubation of 20 minutes with 100 μl quenching buffer, containing 1% (vol/vol) hydrogen peroxide (Thermo Fisher Scientific) and 0.1% (vol/vol) sodium azide (Sigma-Aldrich) in phosphate-buffered saline. Cells were washed two times with wash buffer, incubated for 1 hour with 100 μl antibody blocking buffer from the kit and washed two times again. 40 μl of diluted antibody against phosphorylated ERK1/2 (1:500 from the FACE kit) was added and incubated overnight at 4° C. The phospho-ERK antibody has been raised against a synthetic phospho-peptide corresponding to residues Thr202 and Tyr204 of human ERK1 and Thr185 and Tyr187 of human ERK2. For the detection of total ERK, antibody against ERK1 and ERK2 (1:500 from the FACE kit) was added. The excessive primary antibody was washed out, and 100 μl diluted HRP-conjugated anti-rabbit IgG (1:2000 from the FACE kit) was added and incubated for 1 hour at room temperature. Secondary antibody was removed and cells were washed 3 times with wash buffer and twice with PBS. 50 μl per well of FACE chemiluminescent working solution was added. Chemiluminescence was measured on an Envision Multilabel reader.
# [3] = between 1 μM and 100 nM (6<pIC50<7)
# [4] = class between 10 μM and 1 μM (5<pIC50<6)
# [5] = class given as below 100 nM (pIC50>7)
IC50 [1] [nM],"IC50 [2, 3] [nM]","IC50 [2, 4] [nM]","IC50 [2, 5] [nM]",Compound
< 10,100 to 1000,–,–,"Cc1ccc(NC(=O)c2cccc(C(C)(C)C#N)c2)cc1NC(=O)c1cc2nc(NCc3ccncc3)cnc2s1 [Example 18, N-(5-(3-(2-cyanopropan-2-yl)benzamido)-2-methylphenyl)-2-(pyridin-4-ylmethylamino)thieno[2,3-b]pyrazine-6-carboxamide]"
< 100,–,1000 to 10000,–,"CC(=O)c1cnc2sc(C(=O)Nc3cc(NC(=O)c4cccc(C(C)(C)C#N)c4)ccc3C)cc2n1 [Example 19, 2-acetyl-N-(5-(3-(2-cyanopropan-2-yl)benzamido)-2-methylphenyl)thieno[2,3-b]pyrazine-6-carboxamide]"
< 10,–,–,< 100,"Cc1ccc(NC(=O)c2cccc(C(C)(C)C#N)c2)cc1NC(=O)c1cc2nc(-c3cccnc3)cnc2s1 [Example 20, N-(5-(3-(2-cyanopropan-2-yl)benzamido)-2-methylphenyl)-2-(pyridin-3-yl)thieno[2,3-b]pyrazine-6-carboxamide]"
< 100,–,–,< 100,"Cc1ccc(NC(=O)c2cccc(C(C)(C)C#N)c2)cc1NC(=O)c1cc2nc(-c3ccncc3)cnc2s1 [Example 21, N-(5-(3-(2-cyanopropan-2-yl)benzamido)-2-methylphenyl)-2-(pyridin-4-yl)thieno[2,3-b]pyrazine-6-carboxamide]"
< 10,100 to 1000,–,–,"Cc1cnc2sc(C(=O)Nc3cc(NC(=O)c4cccc(C(C)(C)C#N)c4)ccc3C)cc2n1 [Example 24, N-(5-(3-(2-cyanopropan-2-yl)benzamido)-2-methylphenyl)-2-methylthieno[2,3-b]pyrazine-6-carboxamide]"
< 100,–,1000 to 10000,–,"Cc1ccc(NC(=O)c2ccnc(N3CCCC3)c2)cc1NC(=O)c1cc2nccnc2s1 [Example 26, N-(2-methyl-5-(2-(pyrrolidin-1-yl)isonicotinamido)phenyl)thieno[2,3-b]pyrazine-6-carboxamide]"
< 10,100 to 1000,–,–,"Cc1ccc(NC(=O)c2cccc(C(C)(C)C#N)c2)cc1NC(=O)c1cc2nccnc2s1 [Example 27, N-(5-(3-(2-cyanopropan-2-yl)benzamido)-2-methylphenyl)thieno[2,3-b]pyrazine-6-carboxamide]"
< 100,100 to 1000,–,–,"COc1ccc(C(=O)Nc2ccc(C)c(NC(=O)c3cc4nccnc4s3)c2)cc1C(F)(F)F [Example 28, N-(5-(4-methoxy-3-(trifluoromethyl)benzamido)-2-methylphenyl)thieno[2,3-b]pyrazine-6-carboxamide]"
< 10,100 to 1000,–,–,"Cc1ccc(NC(=O)c2cccc(C3(C#N)CC3)c2)cc1NC(=O)c1cc2nccnc2s1 [Example 29, N-(5-(3-(1-cyanocyclopropyl)benzamido)-2-methylphenyl)thieno[2,3-b]pyrazine-6-carboxamide]"
< 100,100 to 1000,–,–,"Cc1ccc(NC(=O)c2cc(C(C)(C)C)n[nH]2)cc1NC(=O)c1cc2nccnc2s1 [Example 30, N-(5-(3-tert-butyl-1H-pyrazole-5-carboxamido)-2-methylphenyl)thieno[2,3-b]pyrazine-6-carboxamide]"
< 100,100 to 1000,–,–,"Cc1ccc(NC(=O)c2ccc(C)c(C(F)(F)F)c2)cc1NC(=O)c1cc2nccnc2s1 [Example 31, N-(2-methyl-5-(4-methyl-3-(trifluoromethyl)benzamido)phenyl)thieno[2,3-b]pyrazine-6-carboxamide]"
< 100,–,1000 to 10000,–,"Cc1ccc(NC(=O)c2cc(F)cc(C(F)(F)F)c2)cc1NC(=O)c1cc2nccnc2s1 [Example 32, N-(5-(3-fluoro-5-(trifluoromethyl)benzamido)-2-methylphenyl)thieno[2,3-b]pyrazine-6-carboxamide]"
< 100,–,1000 to 10000,–,"Cc1ccc(NC(=O)c2cccc(OC(F)(F)F)c2)cc1NC(=O)c1cc2nccnc2s1 [Example 35, N-(2-methyl-5-(3-(trifluoromethoxy)benzamido)phenyl)thieno[2,3-b]pyrazine-6-carboxamide]"
< 100,–,1000 to 10000,–,"Cc1ccc(NC(=O)c2cccc(C3(C#N)CCOCC3)c2)cc1NC(=O)c1cc2nccnc2s1 [Example 36, N-(5-(3-(4-cyanotetrahydro-2H-pyran-4-yl)benzamido)-2-methylphenyl)thieno[2,3-b]pyrazine-6-carboxamide]"
< 100,–,1000 to 10000,–,"Cc1ccc(NC(=O)c2ccc(F)c(C(F)(F)F)c2)cc1NC(=O)c1cc2nccnc2s1 [Example 37, N-(5-(4-fluoro-3-(trifluoromethyl)benzamido)-2-methylphenyl)thieno[2,3-b]pyrazine-6-carboxamide]"
< 100,100 to 1000,–,–,"Cc1ccc(NC(=O)c2cccc(C(F)(F)F)c2F)cc1NC(=O)c1cc2nccnc2s1 [Example 38, N-(5-(2-fluoro-3-(trifluoromethyl)benzamido)-2-methylphenyl)thieno[2,3-b]pyrazine-6-carboxamide]"
< 100,–,1000 to 10000,–,"Cc1ccc(NC(=O)c2cc(OC(F)(F)F)ccc2F)cc1NC(=O)c1cc2nccnc2s1 [Example 39, N-(5-(2-fluoro-5-(trifluoromethoxy)benzamido)-2-methylphenyl)thieno[2,3-b]pyrazine-6-carboxamide]"

# Reference: US8669256B2, “Substituted thieno[2,3-b]pyrazine compounds as modulators of B-Raf kinase activity” (Merck Sharp & Dohme B.V., priority 2010, dated 2014)
